# Laboratory results reported in article PMC8776995 (Frontiers in Chemistry, 2022).
# Where “and” joins values, the source holds several entries; their conditions need not be identical. Identical values can stand only once.
# Assays:
# H460 cells = experiment: CCK-8 antiproliferation assay, H460; conditions: for Inhibitory efficacy: H460 cells
# PC-9 xenograft = experiment: In vivo antitumor activity, PC-9 xenograft in NSG mice; set-up: species or system mouse
# Experimental: The mouse body mass was recorded as well.
# PC-9 cells = experiment: CCK-8 antiproliferation assay, PC-9; conditions: for Inhibitory efficacy: single repeats (Repeat 1-3), given as fraction
# A549 cells = experiment: CCK-8 antiproliferation assay, A549; conditions: given as fraction, Repeat 1-3; for Inhibitory efficacy: A549 cells
# H1975 cells = experiment: CCK-8 antiproliferation assay, H1975; conditions: for Inhibitory efficacy: H1975 cells
# [1] = 2uM, given as fraction, Repeat 1-3
# [2] = 4uM, given as fraction, Repeat 1-3
# [3] = 8uM, given as fraction, Repeat 1-3
# [4] = 16uM, given as fraction, Repeat 1-3
structure (smiles),measurement,setting,value
COCCOc1cc2ncnc(Nc3cccc(-c4cn(Cc5cccc(OC)c5)nn4)c3)c2cc1OCCOC [e5],melting point,,85 to 88 °C
"C#Cc1cccc(Nc2ncnc3cc(OCCOC)c(OCCOC)cc23)c1 [Erlotinib, reference compound]",Inhibitory efficacy,"H460 cells; 1uM, given as fraction, Repeat 1-3",0.09689 and 0.1206
same,Inhibitory efficacy,H460 cells; [1],0.2063 and 0.1995
same,Inhibitory efficacy,H460 cells; [2],0.3477 and 0.3746
same,Inhibitory efficacy,H460 cells; [3],0.4407 and 0.5067
same,Inhibitory efficacy,H460 cells; [4],0.4651 and 0.4816
same,IC50,"H460 cells; Homo sapiens, NCI-H460, 48 h, read-out: IC50 (μM) H460",13.3 ± 1.5 µM
same,inhibition at 1 µM,"H460 cells; Homo sapiens, NCI-H460, read-out: Inhibitory efficacy, H460 cells, 1uM, given as fraction, Repeat 1-3",6.64%
same,inhibition at 2 µM,"H460 cells; Homo sapiens, NCI-H460, read-out: Inhibitory efficacy, H460 cells, 2uM, given as fraction, Repeat 1-3",14.3%
same,inhibition at 4 µM,"H460 cells; Homo sapiens, NCI-H460, read-out: Inhibitory efficacy, H460 cells, 4uM, given as fraction, Repeat 1-3",30%
same,inhibition at 8 µM,"H460 cells; Homo sapiens, NCI-H460, read-out: Inhibitory efficacy, H460 cells, 8uM, given as fraction, Repeat 1-3",47.8%
same,inhibition at 16 µM,"H460 cells; Homo sapiens, NCI-H460, read-out: Inhibitory efficacy, H460 cells, 16uM, given as fraction, Repeat 1-3",47.2%
same,tumor volume mean,"PC-9 xenograft; Day13, group mean",75.6221 mm3
same,tumor length,"PC-9 xenograft; Day13, individual animals",5.32 mm and 6.15 mm and 5.63 mm and 5.6 mm and 6.4 mm and 5.64 mm and 7.11 mm
same,tumor volume,"PC-9 xenograft; Day13, individual animals",68.645 mm3 and 111.069 mm3 and 86.3969 mm3 and 32.368 mm3 and 70.688 mm3 and 54.5952 mm3 and 105.592 mm3
same,tumor width,"PC-9 xenograft; Day13, individual animals",5.08 mm and 6.01 mm and 5.54 mm and 3.4 mm and 4.7 mm and 4.4 mm and 5.45 mm
same,tumor volume mean,"PC-9 xenograft; Day15, group mean",46.9389 mm3
same,tumor length,"PC-9 xenograft; Day15, individual animals",5.43 mm and 5.76 mm and 4.04 mm and 4.28 mm and 5.96 mm and 6.09 mm and 6.46 mm
same,tumor volume,"PC-9 xenograft; Day15, individual animals",23.7877 mm3 and 44.4813 mm3 and 30.5668 mm3 and 38.11 mm3 and 66.1086 mm3 and 70.1568 mm3 and 55.3609 mm3
same,tumor width,"PC-9 xenograft; Day15, individual animals",2.96 mm and 3.93 mm and 3.89 mm and 4.22 mm and 4.71 mm and 4.8 mm and 4.14 mm
same,tumor volume mean,"PC-9 xenograft; Day17, group mean",35.7998 mm3
same,tumor length,"PC-9 xenograft; Day17, individual animals",4.34 mm and 4.5 mm and 4.68 mm and 3.6 mm and 3.5 mm and 5.64 mm and 5.39 mm
same,tumor volume,"PC-9 xenograft; Day17, individual animals",40.4974 mm3 and 44.957 mm3 and 28.665 mm3 and 15.138 mm3 and 14.7175 mm3 and 67.7082 mm3 and 38.9158 mm3
same,tumor width,"PC-9 xenograft; Day17, individual animals",4.32 mm and 4.47 mm and 3.5 mm and 2.9 mm and 4.9 mm and 3.8 mm
same,tumor volume mean,"PC-9 xenograft; Day19, group mean",14.0038 mm3
same,tumor length,"PC-9 xenograft; Day19, individual animals",2.66 mm and 3.12 mm and 2.47 mm and 0 mm and 3.83 mm and 4.36 mm and 4.91 mm
same,tumor volume,"PC-9 xenograft; Day19, individual animals",8.246 mm3 and 6.24 mm3 and 5.446 mm3 and 0 mm3 and 21.1079 mm3 and 22.4629 mm3 and 34.5234 mm3
same,tumor width,"PC-9 xenograft; Day19, individual animals",2.49 mm and 2 mm and 2.1 mm and 0 mm and 3.32 mm and 3.21 mm and 3.75 mm
same,IC50,"PC-9 cells; Homo sapiens, PC-9, 48 h, read-out: IC50 (μM) PC-9",0.21 ± 0.07 µM
same,inhibition at 1 µM,"PC-9 cells; Homo sapiens, PC-9, read-out: Inhibitory efficacy, PC-9, 1uM, single repeats (Repeat 1-3), given as fraction",60.2%
same,inhibition at 2 µM,"PC-9 cells; Homo sapiens, PC-9, read-out: Inhibitory efficacy, PC-9, 2uM, single repeats (Repeat 1-3), given as fraction",62.2%
same,inhibition at 4 µM,"PC-9 cells; Homo sapiens, PC-9, read-out: Inhibitory efficacy, PC-9, 4uM, single repeats (Repeat 1-3), given as fraction",73.2%
same,inhibition at 8 µM,"PC-9 cells; Homo sapiens, PC-9, read-out: Inhibitory efficacy, PC-9, 8uM, single repeats (Repeat 1-3), given as fraction",72.2%
same,inhibition at 16 µM,"PC-9 cells; Homo sapiens, PC-9, read-out: Inhibitory efficacy, PC-9, 16uM, single repeats (Repeat 1-3), given as fraction",77.6%
same,Inhibitory efficacy,"PC-9 cells; PC-9, 1uM, 1 µM",0.6098 and 0.6255
same,Inhibitory efficacy,"PC-9 cells; PC-9, 2uM, 2 µM",0.6294 and 0.6255
same,Inhibitory efficacy,"PC-9 cells; PC-9, 4uM, 4 µM",0.6922 and 0.7284
same,Inhibitory efficacy,"PC-9 cells; PC-9, 8uM, 8 µM",0.7167 and 0.7137
same,Inhibitory efficacy,"PC-9 cells; PC-9, 16uM, 16 µM",0.7578 and 0.7647
same,Inhibitory efficacy,A549 cells; 1uM,0.1312 and 0.1478
same,Inhibitory efficacy,A549 cells; 2uM,0.2342 and 0.2336
same,Inhibitory efficacy,A549 cells; 4uM,0.4482 and 0.3384
same,Inhibitory efficacy,A549 cells; 8uM,0.471 and 0.4975
same,Inhibitory efficacy,A549 cells; 16uM,0.5265 and 0.5389
same,inhibition at 1 µM,"A549 cells; Homo sapiens, A549, read-out: Inhibitory efficacy, A549 cells, 1uM",22.3%
same,inhibition at 2 µM,"A549 cells; Homo sapiens, A549, read-out: Inhibitory efficacy, A549 cells, 2uM",25.5%
same,inhibition at 4 µM,"A549 cells; Homo sapiens, A549, read-out: Inhibitory efficacy, A549 cells, 4uM",39%
same,inhibition at 8 µM,"A549 cells; Homo sapiens, A549, read-out: Inhibitory efficacy, A549 cells, 8uM",47.8%
same,inhibition at 16 µM,"A549 cells; Homo sapiens, A549, read-out: Inhibitory efficacy, A549 cells, 16uM",56%
same,Inhibitory efficacy,H1975 cells; [1],0.1989 and 0.1819
same,Inhibitory efficacy,H1975 cells; [2],0.3103 and 0.3631
same,Inhibitory efficacy,H1975 cells; [3],0.4556 and 0.4424
same,Inhibitory efficacy,H1975 cells; [4],0.4821 and 0.5651
same,IC50,"H1975 cells; Homo sapiens, NCI-H1975, 48 h, read-out: IC50 (μM) H1975",12.7 ± 2.76 µM
same,inhibition at 2 µM,"H1975 cells; Homo sapiens, NCI-H1975, read-out: Inhibitory efficacy, H1975 cells, 2uM, given as fraction, Repeat 1-3",20.1%
same,inhibition at 4 µM,"H1975 cells; Homo sapiens, NCI-H1975, read-out: Inhibitory efficacy, H1975 cells, 4uM, given as fraction, Repeat 1-3",30.1%
same,inhibition at 8 µM,"H1975 cells; Homo sapiens, NCI-H1975, read-out: Inhibitory efficacy, H1975 cells, 8uM, given as fraction, Repeat 1-3",42.2%
same,inhibition at 16 µM,"H1975 cells; Homo sapiens, NCI-H1975, read-out: Inhibitory efficacy, H1975 cells, 16uM, given as fraction, Repeat 1-3",55.9%
